The source of these data is publication PMC4357465, “Tool Compounds Robustly Increase Turnover of an Artificial Substrate by Glucocerebrosidase in Human Brain Lysates” (PLoS ONE, 2015).

Common to all, as to format: biochemical
Assay [1] concerns the target T1, recombinant GBA2 (Homo sapiens, UniProt Q9HCG7).
T1 construct: purchased Abcam ab163631
T1 sequence (Q9HCG7 1-927): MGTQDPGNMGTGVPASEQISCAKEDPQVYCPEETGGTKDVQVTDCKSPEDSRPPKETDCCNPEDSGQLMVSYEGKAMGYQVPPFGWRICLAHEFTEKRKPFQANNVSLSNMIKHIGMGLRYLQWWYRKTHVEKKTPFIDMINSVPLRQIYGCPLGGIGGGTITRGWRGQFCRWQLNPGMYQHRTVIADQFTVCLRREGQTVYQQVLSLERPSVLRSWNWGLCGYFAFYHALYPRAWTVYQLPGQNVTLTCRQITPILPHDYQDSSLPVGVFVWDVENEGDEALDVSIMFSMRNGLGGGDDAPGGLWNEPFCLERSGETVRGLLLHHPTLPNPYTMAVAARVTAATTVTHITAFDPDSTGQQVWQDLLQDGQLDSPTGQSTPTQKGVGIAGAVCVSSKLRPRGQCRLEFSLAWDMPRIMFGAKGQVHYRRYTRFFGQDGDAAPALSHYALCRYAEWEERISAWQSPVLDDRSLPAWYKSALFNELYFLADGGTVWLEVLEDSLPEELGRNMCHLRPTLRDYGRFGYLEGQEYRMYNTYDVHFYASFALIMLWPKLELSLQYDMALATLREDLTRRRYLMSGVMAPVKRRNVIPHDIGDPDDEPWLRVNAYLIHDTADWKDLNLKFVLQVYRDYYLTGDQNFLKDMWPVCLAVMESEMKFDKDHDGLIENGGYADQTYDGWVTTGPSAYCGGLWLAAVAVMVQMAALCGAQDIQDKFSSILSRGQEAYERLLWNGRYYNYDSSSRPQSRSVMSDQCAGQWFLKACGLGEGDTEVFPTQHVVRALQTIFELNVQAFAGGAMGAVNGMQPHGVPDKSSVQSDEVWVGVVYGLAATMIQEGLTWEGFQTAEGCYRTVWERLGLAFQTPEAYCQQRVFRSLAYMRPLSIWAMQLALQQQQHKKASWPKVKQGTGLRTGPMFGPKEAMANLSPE
In words: cell-free 4MUG assay with recombinant GBA2. The following applies: dose response, within the concentrations tested. How it is done:
The assay buffer consisted of 44 mM Citric Acid, 111 mM Na2HPO4, pH 5.5, 0.1% Triton X-100. […] A 10-fold intermediate solution of compound serial dilution was prepared in an assay buffer; half log dilutions were used. In a black 384-well plate (ThermoFisher, 267461) we added 5 μl of enzyme solution and 1 μl of compounds when appropriate, and incubated for 30 minutes at room temperature. 2 mM solution of 4MUG was prepared in an assay buffer. To start the reaction, 4.5 μl/well of this solution was added to the enzyme plate and was incubated for 30 minutes at 37°C. To stop the reaction, a 1M glycine solution, adjusted to pH = 10 using 1M NaOH was used. The fluorescent signal was detected using the Envision Multilabel Plate Reader (Perkin Elmer) at excitation = 355nm and emission = 450nm.

Assay [2] addresses T2, GBA1 in lysates from human cortex (Homo sapiens, UniProt P04062).
T2 construct: Human cortex samples were obtained from deceased aged Caucasian subjects without any diagnosis of neurodegenerative disorders; tissue Tissue Solutions; Proteogenex; host or cells: human cortex (post mortem)
T2 sequence (P04062 40-536): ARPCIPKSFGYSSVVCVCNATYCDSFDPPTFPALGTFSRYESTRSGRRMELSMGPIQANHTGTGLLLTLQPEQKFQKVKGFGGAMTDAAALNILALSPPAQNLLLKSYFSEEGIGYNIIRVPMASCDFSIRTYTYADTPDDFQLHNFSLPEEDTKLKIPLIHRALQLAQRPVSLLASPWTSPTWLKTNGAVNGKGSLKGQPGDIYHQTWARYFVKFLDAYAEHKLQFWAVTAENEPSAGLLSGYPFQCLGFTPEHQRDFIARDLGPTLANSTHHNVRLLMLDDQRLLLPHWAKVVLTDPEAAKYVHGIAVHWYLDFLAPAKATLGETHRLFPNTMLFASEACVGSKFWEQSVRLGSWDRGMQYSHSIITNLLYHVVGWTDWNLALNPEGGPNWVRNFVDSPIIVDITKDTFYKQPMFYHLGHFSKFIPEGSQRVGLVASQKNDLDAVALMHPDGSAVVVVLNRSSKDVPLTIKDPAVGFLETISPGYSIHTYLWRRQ
In words: GBA1 tissue assay, 4MUG turnover in human cortex lysates. The following applies: human cortex lysate 10 μg, with sodium taurocholate. How it is done:
(§1) Brain lysates were prepared by mechanical homogenization of mouse brain and human cortex in 10x weight/volume of the homogenization buffer used in the GBA1 enzymatic cell-free assay (250 mM Sucrose, 10 mM Tris pH = 7.5, 1 mM EDTA, 0.25% Triton X-100 solution, protease inhibitors, phosphatase inhibitors I and III, PMSF). Human cortex was acquired from brain banks (Tissue Solutions: http://www.tissue-solutions.com; Proteogenex: http://www.proteogenex.com). Human cortex samples were obtained from deceased aged Caucasian subjects without any diagnosis of neurodegenerative disorders. Mouse brain was obtained from 4–7 month old C57BL/6J mice. All mouse experiments were performed in accordance with the specifications of both the National Institutes of Health Guide for the Care and Use of Laboratory Animals, studies were approved by Pfizer’s Internal Animal Care and Use Committee (IACUC).
(§2) Prior to 30 min lysis on ice, human brain samples were also sonicated for 15 seconds as this step was needed to fully extract GBA1 (data not shown). Samples were then centrifuged at 20,000g for 15 minutes at 4°C. Supernatant was collected, and used for activity assays and Western blots. Protein concentration was determined using the Pierce BCA protein assay kit. Tissue lysates and pellets were stored at -80°C until use. For enzymatic activity assays, lysates were subjected only to one free-thaw cycle. Independent replicates were obtained using brain lysates from either different human subjects or different mice.
(§3) GBA1 activity in tissues was measured using the assay conditions described in the previous section. 10 μg of protein/well was used for the activity experiments, unless stated otherwise. Brain tissue lysates were diluted to 0.4 μg/ μl of protein in the same homogenization buffer, as described above. 25 μl of diluted lysate was added to the plate (Costar, 7200567). Lysates were then incubated on ice in the presence or absence of a compound for 30 minutes. 100 μl of assay buffer was then added to the plate. The same assay buffer was used as in the cell free/recombinant experiments and processed as described above.

Assay [3] concerns GBA1 in lysates from human cortex. The assay is described as above. The following applies: human cortex lysate 10 μg, without sodium taurocholate. As for the experimental part:
as §1, §2, §3

The structures appear in SMILES notation. Values joined by “and” are separate entries in the source; they are usually repeats but may differ in a detail not shown here. Equal entries are not always repeated. “Also recorded” adds a separate entry of the source.

On to `O[C@H]1[C@H](O)[C@@H](O)[C@@H]2O[C@@H]2[C@@H]1O` [CBE], for which, in assay [1], the “effect on activity of recombinant GBA2” value is “did not inhibit; also recorded: does not alter activity”. Moreover, the “% inhibition + NaTc” value in assay [2] (1mM) was 86 ± 4% and ~ 90%. In assay [3] (1mM), the “% inhibition - NaTc” value was 31 ± 8% and ~ 30%.
With `OC[C@H]1CNC[C@@H](O)[C@@H]1O` [Isofagomine, isofagomine], the “effect on activity of recombinant GBA2” value is “almost no effect” in assay [1] and “Minimal effect” in assay [1] (listed as isofagomine). For the same compound, the “% inhibition + NaTc” value in assay [2] (1 μM) was ~ 90%. Also, the inhibition at 1 µM in assay [2] (1 μM, read-out: % inhibition + NaTc) came out at 92 ± 2%. Further, the “% inhibition - NaTc” value is on record as 27 ± 4% in assay [3] (1 μM) and ~ 30% in assay [3] (1 μM, listed as isofagomine).
